According to ChEMBL document CHEMBL5233258, “Recent developments of gallic acid derivatives and their hybrids in medicinal chemistry: A review” (Eur J Med Chem, 2020):
Values after ≈ are worked out from the molar mass of the structure shown.

Legend:
[1] = Inhibition of recombinant HIV-1 integrase using 32-P labeled dBY-1 as substrate assessed as disintegration of substrate incubated for 1 hrs; parameters: species or system Human immunodeficiency virus 1
[2] = Antioxidant activity assessed as DPPH radical scavenging activity measured after 30 mins; assay type: functional
[3] = Antioxidant activity assessed as DPPH radical scavenging activity; assay type: functional
[4] = Antioxidant activity assessed as ABTS radical scavenging activity; assay type: functional
[5] = test system: Escherichia coli; assay: Antibacterial activity against Escherichia coli assessed as zone of inhibition incubated for 24 hrs by agar diffusion method; assay type: functional
[6] = test system: Pseudomonas aeruginosa; assay: Antibacterial activity against Pseudomonas aeruginosa assessed as zone of inhibition incubated for 24 hrs by agar diffusion method; assay type: functional
[7] = Antioxidant activity assessed as DPPH radical scavenging activity measured after 30 mins by spectrophotometric analysis; assay type: functional
[8] = test system: Mycobacterium tuberculosis; assay: Antitubercular activity against Mycobacterium tuberculosis H37 Rv ATCC 27294 incubated for 7 days by Alamar blue assay; assay type: functional; conditions: H37 Rv ATCC 27294, 168 h, time 7 day
[9] = test system: Bacillus subtilis; assay: Antibacterial activity against Bacillus subtilis ATCC 6633 by Mueller-Hinton broth method; assay type: functional
[10] = test system: Bacillus subtilis; assay: Bactericidal activity against Bacillus subtilis ATCC 6633 by Mueller-Hinton broth method; assay type: functional
[11] = test system: HCT-116; assay: Cytotoxicity against human HCT-116 cells assessed as reduction in cell viability incubated for 72 hrs by MTT assay; assay type: functional, cell-based; conditions: HCT-116, 72 h
[12] = test system: MCF7; assay: Cytotoxicity against human MCF7 cells assessed as reduction in cell viability incubated for 72 hrs by MTT assay; assay type: functional, cell-based; conditions: MCF7, 72 h
[13] = test system: HepG2; assay: Cytotoxicity against human HepG2 cells by MTT assay; assay type: functional, cell-based
[14] = test system: HCT-116; assay: Cytotoxicity against human HCT-116 cells by MTT assay; assay type: functional, cell-based
[15] = species on record: Rattus norvegicus; assay: Inhibition of tert-butylhydroperoxide induced lipid peroxidation in rat liver microsomes; assay type: functional, Microsome
[16] = test system: Plasmodium falciparum; assay: Antimalarial activity against Plasmodium falciparum; assay type: functional, organism-based
[17] = test system: HCT-116; assay: Anticancer activity against human HCT-116 cells assessed as inhibition of cell growth incubated for 24 hrs by MTT assay; assay type: functional, cell-based; conditions: HCT-116, 24 h
[18] = test system: Bacillus subtilis; assay: Antibacterial activity against Bacillus subtilis ATCC 9372 assessed as inhibition of bacterial growth incubated for 48 hrs by broth macrodilution method; assay type: functional
[19] = test system: Staphylococcus aureus; assay: Antibacterial activity against Staphylococcus aureus ATCC 12598 assessed as inhibition of bacterial growth incubated for 48 hrs by broth macrodilution method; assay type: functional
[20] = test system: Micrococcus luteus; assay: Antibacterial activity against Micrococcus luteus ATCC 4698 assessed as inhibition of bacterial growth incubated for 48 hrs by broth macrodilution method; assay type: functional
[21] = test system: Corynebacterium ammoniagenes; assay: Antibacterial activity against Brevibacterium ammoniagenes ATCC 6872 assessed as inhibition of bacterial growth incubated for 48 hrs by broth macrodilution method; assay type: functional
[22] = test system: Bacillus subtilis; assay: Bactericidal activity against Bacillus subtilis ATCC 9372 assessed as inhibition of bacterial growth incubated for 48 hrs by broth macrodilution method; assay type: functional
[23] = test system: Staphylococcus aureus; assay: Bactericidal activity against Staphylococcus aureus ATCC 12598 assessed as inhibition of bacterial growth incubated for 48 hrs by broth macrodilution method; assay type: functional
[24] = test system: Micrococcus luteus; assay: Bactericidal activity against Micrococcus luteus ATCC 4698 assessed as inhibition of bacterial growth incubated for 48 hrs by broth macrodilution method; assay type: functional
[25] = test system: Corynebacterium ammoniagenes; assay: Bactericidal activity against Brevibacterium ammoniagenes ATCC 6872 assessed as inhibition of bacterial growth incubated for 48 hrs by broth macrodilution method; assay type: functional

O=C(/C=C/c1ccc(O)c(O)c1)O[C@@H]1C[C@](O)(C(=O)O)C[C@@H](OC(=O)/C=C/c2ccc(O)c(O)c2)[C@H]1O
IC50 [1]: 5.53 µM

C/C(=N/NC(=O)c1cc(O)c(O)c(O)c1)c1cc(Br)ccc1O
IC50 [2]: 1.14 µg/mL (≈ 2.99 µM)

Oc1cc(-c2nnc(CC(O)(Cc3nnc(-c4cc(O)c(O)c(O)c4)o3)c3nnco3)o2)cc(O)c1O
IC50 [3]: 16 µM
IC50 [4]: 125 µM

COc1cc(C(=O)N/N=C/c2ccnc3ccccc23)cc(OC)c1OC
inhibition zone (IZ) [5]: 17 mm
inhibition zone (IZ) [6]: 17 mm

Cc1c(C)c2c(c(C)c1O)CC[C@@](C)(CCC[C@H](C)CCC[C@H](C)CCCC(C)C)O2 [ALPHA-TOCOPHEROL]
IC50 [7]: 911 µM

CSc1nnc(C(=O)c2cc(O)c(O)c(O)c2)o1
IC50 [3]: 14.6 µM
IC50 [4]: 24.4 µM

NNC(=O)c1ccncc1 [ISONIAZID]
MIC [8]: 0.56 µg/mL (≈ 4.08 µM)

O=C(O)c1cc(OCCNC(=O)c2cc(OCCNC(=O)c3cc(OCNC(=O)c4cc(O)c(O)c(O)c4)cc(OCNC(=O)c4cc(O)c(O)c(O)c4)c3)cc(OCCNC(=O)c3cc(OCNC(=O)c4cc(O)c(O)c(O)c4)cc(OCNC(=O)c4cc(O)c(O)c(O)c4)c3)c2)cc(OCCNC(=O)c2ccc(OCCNC(=O)c3cc(OCNC(=O)c4cc(O)c(O)c(O)c4)cc(OCNC(=O)c4cc(O)c(O)c(O)c4)c3)c(OCCNC(=O)c3cc(OCNC(=O)c4cc(O)c(O)c(O)c4)cc(OCNC(=O)c4cc(O)c(O)c(O)c4)c3)c2)c1
ED50 [3]: 4.7 µM

COc1cc(C(=O)N/N=C/c2c(CO)cnc(C)c2O)cc(OC)c1OC
inhibition zone (IZ) [5]: 17 mm
inhibition zone (IZ) [6]: 17 mm

Oc1cc(-c2nnc(Cc3nnc(-c4cc(O)c(O)c(O)c4)o3)o2)cc(O)c1O
IC50 [3]: 14.8 µM
IC50 [4]: 24.7 µM

CCCCCCCCCCCC[N+](C)(C)CC(=O)O
IC50 [7]: 4690 µM
MIC [9]: 1100 µM
MBC [10]: 1100 µM

COc1cc(/C=C/C(=O)CC(=O)/C=C/c2ccc(O)c(OC)c2)ccc1O [CURCUMIN]
IC50 [11]: 34.7 µM
IC50 [12]: 13.7 µM

COc1cc2c(cc1Cc1cccc(Cl)c1F)c(=O)c(C(=O)O)cn2[C@H](CO)C(C)C [ELVITEGRAVIR]
IC50 [1]: > 100 µM

COc1ccc(C2=NN(C(=O)c3cc(O)c(O)c(O)c3)C(c3ccc(C#N)cc3)C2)cc1OC (stereo not given)
IC50 [13]: 15.2 µg/mL (≈ 33.1 µM)
IC50 [14]: 31.5 µg/mL (≈ 68.6 µM)

Cc1nnc(C(=O)NC(C)(C)c2nc(C(=O)NCc3ccc(F)cc3)c(O)c(=O)n2C)o1 [RALTEGRAVIR]
IC50 [1]: 35.2 µM

O=C1O[C@H]([C@@H](O)CO)C(O)=C1O [ASCORBIC ACID]
IC50 [3]: 18 µM
IC50 [2]: 2.26 µg/mL (≈ 12.8 µM)
IC50 [4]: 30.1 µM
IC50 [7]: 981 µM

O=C(OC[C@H]1O[C@@H](Oc2c(-c3ccc(O)c(O)c3)oc3cc(O)cc(O)c3c2=O)[C@H](O)[C@@H](O)[C@@H]1O)c1cc(O)c(O)c(O)c1
IC50 [15]: 6.64 µM

COc1ccc(C2CC(c3ccc(OC)c(OC)c3)=NN2C(=O)c2cc(O)c(O)c(O)c2)cc1 (stereo not given)
IC50 [13]: 8.4 µg/mL (≈ 18.1 µM)
IC50 [14]: 18.6 µg/mL (≈ 40 µM)

CCCCCCOC(=O)c1cc(O)c(O)c(O)c1 [HEXYL GALLATE]
IC50 [16]: 110 µM

N#Cc1c(NC(=O)c2cc(O)c(O)c(O)c2)sc2c1CCCCC2
IC50 [17]: 3.2 µg/mL (≈ 9.29 µM)

CCCCCCCCCC[N+]1(C)CCCCC1
MIC [9]: 1000 µM
MBC [10]: 1000 µM

COc1cccc(OC)c1C(=O)N[C@@H]1C(=O)N2[C@@H]1SC(C)(C)[C@@H]2C(=O)O [METHICILLIN]
MIC [18]: 1.56 µg/mL (≈ 4.1 µM)
MIC [19]: 1.56 µg/mL (≈ 4.1 µM)
MIC [20]: 6.25 µg/mL (≈ 16.4 µM)
MIC [21]: 25 µg/mL (≈ 65.7 µM)
MBC [22]: 6.25 µg/mL (≈ 16.4 µM)
MBC [23]: > 6.25 µg/mL
MBC [24]: 6.25 µg/mL (≈ 16.4 µM)
MBC [25]: 25 µg/mL (≈ 65.7 µM)

Cc1c(C)c2c(c(C)c1O)CCC(C)(C(=O)O)O2 (stereo not given) [TROLOX]
IC50 [3]: 30.6 µM

COC1=CC(=O)C[C@@H](C)[C@]12Oc1c(Cl)c(OC)cc(OC)c1C2=O [GRISEOFULVIN]
inhibition zone (IZ) [5]: 22 mm
